In patent US20150218654A1, “METHODS FOR PREDICTING MULTIPLE MYELOMA TREATMENT RESPONSE” (INSERM (INSTITUT NATIONAL DE LA SANTÉ ET DE LA RE- CHERCHE …, priority 2012, published 2015):
Where “and” joins values, the source holds several entries; their conditions need not be identical. Equal entries are not always repeated. Where two headings read alike, the source gives them in different places.

Tests used:
[1] = test system: primary myeloma cells of patients (CD138+ viable plasma cells); assay: Mononuclear cell culture of patients' tumor samples, count of viable CD138+ myeloma cells by flow cytometry; type: cell-based, human
Description: Mononuclear cells from tumor samples of 12 patients with MM were cultured for 4 days in the presence of IL-6 (2 ng/ml) with or without graded decitabine concentrations. At day 4 of culture, the cell count and the viability were determined and the percentage of CD138^+ viable plasma cells was determined by flow cytometry. Black color represents patients with high DM Score (N=6) and white represents patients with low DM Score values (N=6).
Mononuclear cells from tumor samples of 14 patients with MM were cultured for 4 days in the presence of IL-6 (2 ng/ml) with or without graded 5-azacitidine concentrations. At day 4 of culture, the count of viable CD138′ MMCs was determined using flow cytometry. The black columns represent the mean±SD of primary myeloma cell counts (expressed as the percentage of the count without adding 5-azcytidine) of the 7 patients with a low DM Score and the white columns that of the 7 patients with a high DM Score.
Mononuclear cells from tumor samples of 12 patients with MM (agreement of the Center for Biological Resources of Montpellier University Hospital (N° DC-2008-417)) were cultured for 4 days at 2×10^5 cells/ml in RPMI 1640 medium, 10% FCS, 2 ng/ml IL-6, with or without graded concentrations of decitabine. In each culture group, viability and cell counts were assayed and MMCs were stained with an anti-CD138-PE mAb (Immunotech, Marseille, France) as previously described (32).
Primary myeloma cells of 14 patients were cultured with or without graded concentrations of 5-azacitidine and MMC cytotoxicity evaluated using anti-CD138-PE mAb (Immunotech, Marseille, France) as described (Jourdan, et al 1998; Mahtouk, et al 2004; Moreaux, et al 2012).

[2] = test system: human myeloma cell lines (HMCLs); assay: Growth assay for myeloma cells (Cell Titer Glo, 4 days, graded DNMTi concentrations); type: cell-based; conditions: for IC50: Homo sapiens, 96 h, 4 days
Description: HMCLs were cultured for 4 days in 96-well flat-bottom microtiter plates in RPMI 1640 medium, 10% FCS, 2 ng/ml IL-6 culture medium (control), with graded decitabine concentrations. Data are mean values plus or minus standard deviation (SD) of 5 experiments determined on sextuplet culture wells.
HMCLs were cultured for 4 days in 96-well flat-bottom microtiter plates in RPMI 1640 medium, 10% FCS, 2 ng/ml IL-6 culture medium (control), and graded 5-azacitidine concentrations. Data are mean values plus or minus standard deviation (SD) of 5 experiments determined on sextuplet culture wells.
HMCLs were cultured for 4 days in 96-well flat-bottom microtiter plates in RPMI 1640 medium, 10% FCS, 2 ng/ml IL-6 culture medium (control), with graded decitabine concentrations. Cell growth was evaluated by quantifying intracellular ATP amount with a Cell Titer Glo Luminescent Assay (Promega, Madison, Wis.) with a Centro LB 960 luminometer (Berthold Technologies, Bad Wildbad, Germany).
The inventors sought to determine whether DM Score could predict for the sensitivity of 10 HMCLs to DNMT inhibitor. Starting from a large cohort of 40 HMCLs (22), the 10 HMCLs with the highest or lowest DM Score were selected to assay decitabine sensitivity.
HMCLs were cultured with graded 5-azacitidine (Sigma, St. Louis, Mo.) concentrations. HMCLs cell growth was quantified with a Cell Titer Glo Luminescent Assay (Promega, Madison, Wis.) and half inhibitory concentration (IC50) was determined using GraphPad Prism (http://www.graphpad.com/scientific-software/prism/).

Nc1ncn([C@H]2C[C@H](O)[C@@H](CO)O2)c(=O)n1 [decitabine, 5-Aza-2′-deoxycytidine]
Myeloma cell number/culture well, Mean ([1]; 0.125 μM decitabine, day 4, mean of 6 patients with high DM Score): 54391
Myeloma cell number/culture well, Mean ([1]; 0.125 μM decitabine, day 4, mean of 6 patients with low DM Score): 43748
Myeloma cell number/culture well ([1]; 0.125 μM decitabine, day 4, single patients with high DM Score): 43320 and 49096 and 40432 and 63536 and 69312 and 60648
Myeloma cell number/culture well ([1]; 0.125 μM decitabine, day 4, single patients with low DM Score): 26100 and 51984 and 77976 and 54336 and 1066 and 51024
Myeloma cell number/culture well, Mean ([1]; 0.5 μM decitabine, day 4, mean of 6 patients with high DM Score): 38622
Myeloma cell number/culture well, Mean ([1]; 0.5 μM decitabine, day 4, mean of 6 patients with low DM Score): 38834
Myeloma cell number/culture well ([1]; 0.5 μM decitabine, day 4, single patients with high DM Score): 36738 (2×) and 31086 and 28260 and 56520 and 42390
Myeloma cell number/culture well ([1]; 0.5 μM decitabine, day 4, single patients with low DM Score): 27195 and 45216 and 53694 and 51300 and 870 and 54726
Myeloma cell number/culture well, Mean ([1]; 2 μM decitabine, day 4, mean of 6 patients with high DM Score): 24024
Myeloma cell number/culture well, Mean ([1]; 2 μM decitabine, day 4, mean of 6 patients with low DM Score): 30672
Myeloma cell number/culture well ([1]; 2 μM decitabine, day 4, single patients with high DM Score): 20592 (2×) and 22880 and 18304 and 29744 and 32032
Myeloma cell number/culture well ([1]; 2 μM decitabine, day 4, single patients with low DM Score): 21028 and 32032 and 22880 and 51230 and 1044 and 55818
Myeloma cell number/culture well, Mean ([1]; 8 μM decitabine, day 4, mean of 6 patients with high DM Score): 12808
Myeloma cell number/culture well, Mean ([1]; 8 μM decitabine, day 4, mean of 6 patients with low DM Score): 26080
Myeloma cell number/culture well ([1]; 8 μM decitabine, day 4, single patients with high DM Score): 5800 and 11600 and 10150 and 18850 and 17400 and 13050
Myeloma cell number/culture well ([1]; 8 μM decitabine, day 4, single patients with low DM Score): 18265 and 21750 and 14500 and 53486 and 1039 and 47440
fold higher decitabine sensitivity ([1]; primary MMCs with DM Score above median (−19.7) versus below median, P<0.01): 2.2 fold
fold higher decitabine sensitivity ([2]; HMCLs with highest DM Score versus low DM Score, P=0.01): 11 fold
IC50 ([2]; decitabine, 5 HMCLs with low DM Score, read-out: IC50 range): 2920 to 60800 nM
IC50 ([2]; read-out: IC50 range, decitabine, 5 HMCLs with the highest DM Score): 150 to 2220 nM
IC50 ([2]; read-out: median IC50, decitabine, 5 HMCLs with low DM Score): 7940 nM
IC50 ([2]; read-out: median IC50, decitabine, 5 HMCLs with the highest DM Score): 680 nM
sensitivity class of HMCLs ([2]; XG6, XG20, XG13, SKMM2, LP1 (lowest DM Score)): Resistant
sensitivity class of HMCLs ([2]; XG12, XG16, XG19, JJN3, RPMI8226 (highest DM Score)): Sensitive
